This note sets out measurements from ChEMBL document CHEMBL4483862, “Open-source discovery of chemical leads for next-generation chemoprotective antimalarials” (2018).

The term IC50 denotes the concentration at which inhibition is half-maximal. A word on the IC90: it is the point of the concentration-response curve where the effect stands at 90%.

The assay concerns Plasmodium berghei. The assay can be described thus: Luciferase/luciferin-expressing antifolate-resistant parasites were used to infect a culture of HepG2 cells that were pre-incubated with compounds. Infected hepatocytes emit light due to the luciferase reaction. Assay results are presented as the percent inhibition of light emission compared to control. […]. Type of assay: functional. Conditions: sporozoite; for IC90: read-out: LUCIFERASE INFECTION ASSAY - IC90.

The mark [1] stands for this setting: read-out: LUCIFERASE INFECTION ASSAY - IC50.

For `CCc1ccc(S(=O)(=O)Oc2ccccc2NC(C)=O)cc1`, the IC90 was over 10 µM. For the same molecule, under setting [1], the IC50 is over 10 µM.

For the molecule `CC1CCN(CCCCOc2cccc(Cl)c2)CC1`, the 90% effect concentration (IC90) is over 10 µM. Further, the IC50 under setting [1] is over 10 µM.

As for `COc1ccccc1-c1ccc2ncc(-c3cccnc3)n2n1`, the IC90 is 4.41 µM. Moreover, the IC50 (HEPG2TOX_HILL_SLOPE 0.11, HEPG2TOX_R_SQUARED 0.0747, PBLUC_HILL_SLOPE 11.9, PBLUC_R_SQUARED 0.526, read-out: LUCIFERASE INFECTION ASSAY - IC50) turned out to be 3.67 µM.

With `COc1ccc(-n2nc(C)c3c(=O)cc(C(C)(C)C)[nH]c32)cc1`, the 90% effect concentration (IC90) came to 5.81 µM. For the same molecule, the IC50 (HEPG2TOX_HILL_SLOPE 1.9, HEPG2TOX_R_SQUARED 0.976, PBLUC_HILL_SLOPE 7.24, PBLUC_R_SQUARED 0.294, read-out: LUCIFERASE INFECTION ASSAY - IC50) is 4.29 µM.

As to `Cc1cccc(NC(=O)CNC(=O)c2ccc3c(c2)C(=O)N(C)C3=O)c1C`, the IC90 was over 10 µM. The IC50 under setting [1] was over 10 µM.

In the case of `CC(C)c1noc2ncc(C(=O)Nc3ccc(Cl)c(C(F)(F)F)c3)cc12`, the IC90 stood at 9.79 µM. Also, the IC50 (HEPG2TOX_HILL_SLOPE 7.95, HEPG2TOX_R_SQUARED 0.873, PBLUC_HILL_SLOPE 16.7, PBLUC_R_SQUARED 0.65, read-out: LUCIFERASE INFECTION ASSAY - IC50) amounted to 8.58 µM.

With `COc1cccc(C(=O)Nc2nc3ccccn3c2C(=O)NC2CCCCC2)c1`, the IC90 turned out to be 2.95 µM. In addition, the IC50 (HEPG2TOX_HILL_SLOPE 2.26, HEPG2TOX_R_SQUARED 0.97, PBLUC_HILL_SLOPE 3.61, PBLUC_R_SQUARED 0.707, read-out: LUCIFERASE INFECTION ASSAY - IC50) amounted to 1.61 µM.

For the molecule `CCN(C(=O)c1ccccc1Br)c1nc2c(C)cccc2s1`, the IC90 is over 10 µM. The concentration for half-maximal inhibition (IC50) under setting [1] was over 10 µM.

Take `c1ccc(-c2ccc3ncc(-c4cccnc4)n3n2)cc1`: the 90% effect concentration (IC90) was 3.68 µM. For the setting “HEPG2TOX_HILL_SLOPE 3.18, HEPG2TOX_R_SQUARED 0.875, PBLUC_HILL_SLOPE 8.44, PBLUC_R_SQUARED 0.581, read-out: LUCIFERASE INFECTION ASSAY - IC50”, the IC50 worked out at 2.84 µM.

Take `O=C(Nc1cc(Cl)ccc1N1CCOCC1)c1ccccc1NS(=O)(=O)c1ccc(Br)s1`: the 90% effect concentration (IC90) is 1.16 µM. Besides, the IC50 (FFLUC_HILL_SLOPE 16.2, FFLUC_R_SQUARED 0.517, HEPG2TOX_HILL_SLOPE 1.46, HEPG2TOX_R_SQUARED 0.905, PBLUC_HILL_SLOPE 14.3, PBLUC_R_SQUARED 0.479, read-out: LUCIFERASE INFECTION ASSAY - IC50) came out at 0.994 µM.

Regarding `CCCCn1c(C(C)Oc2ccc(Cl)cc2Cl)nc2cc(S(N)(=O)=O)ccc21` (centres undefined), the IC90 was determined as 0.529 µM. The IC50 under setting [1] came to 0.233 µM.

As for `O=C1C=CC(=O)N1c1cccc(N2C(=O)C=CC2=O)c1`, the IC90 is over 12.3 µM. Besides, where the note is “PBLUC_HILL_SLOPE 9.05, PBLUC_R_SQUARED 0.121, read-out: LUCIFERASE INFECTION ASSAY - IC50”, the IC50 came out at 11.2 µM.

For the molecule `CCCOc1ccc(/C=N/NC(=S)NCCCN2CCOCC2)c(OCCC)c1`, the IC90 is over 10 µM. Moreover, the IC50 (PBLUC_HILL_SLOPE 4.29, PBLUC_R_SQUARED 0.235, read-out: LUCIFERASE INFECTION ASSAY - IC50) came out at 8.13 µM.

Regarding `Cc1nn(-c2cccc(Cl)c2)c2nc(-c3ccccc3)c(-c3nc4ccccc4s3)c(-c3cccnc3)c12`, the IC90 was over 10 µM. In addition, for the setting “HEPG2TOX_HILL_SLOPE 11.2, HEPG2TOX_R_SQUARED 0.958, read-out: LUCIFERASE INFECTION ASSAY - IC50”, the IC50 was over 10 µM.

Consider `N#C/C(=N\Nc1ccc(Cl)cc1)S(=O)(=O)c1ccc(Cl)cc1`, for which the IC90 is 3.93 µM. Besides, where the note is “HEPG2TOX_HILL_SLOPE 1.06, HEPG2TOX_R_SQUARED 0.975, PBLUC_HILL_SLOPE 5.18, PBLUC_R_SQUARED 0.893, read-out: LUCIFERASE INFECTION ASSAY - IC50”, the half-maximal inhibitory concentration (IC50) was 2.57 µM.

In the case of `N#Cc1ccc(/C=C(\c2nc3ccccc3[nH]2)c2nc3ccccc3s2)cc1`, the IC90 was 1.53 µM. Besides, for the setting “FFLUC_HILL_SLOPE 15, FFLUC_R_SQUARED 0.447, HEPG2TOX_HILL_SLOPE 15.3, HEPG2TOX_R_SQUARED 0.806, PBLUC_HILL_SLOPE 8.27, PBLUC_R_SQUARED 0.505, read-out: LUCIFERASE INFECTION ASSAY - IC50”, the IC50 stood at 1.17 µM.

Regarding `COc1cc(-c2cc3nc(Nc4ccc5c[nH]nc5c4)ccn3n2)cc(OC)c1OC`, the IC90 is over 7.92 µM. In addition, the half-inhibitory concentration (IC50) (PBLUC_HILL_SLOPE 11.7, PBLUC_R_SQUARED 0.319, read-out: LUCIFERASE INFECTION ASSAY - IC50) turned out to be 7.27 µM.

For the molecule `CC(C)NCC(=O)Nc1cccc2c1C(=O)c1ccccc1C2=O`, the IC90 was over 10.2 µM. For the same molecule, the IC50 under setting [1] is 8.29 µM.

For `Cn1nnnc1SCC(=O)Nc1ccc(C(=O)Nc2ncccc2O)cc1`, the IC90 was determined as 6.88 µM. Further, the IC50 (PBLUC_HILL_SLOPE 1.53, PBLUC_R_SQUARED 0.512, read-out: LUCIFERASE INFECTION ASSAY - IC50) was determined as 1.64 µM.

For `CCOC(=O)c1[nH]c(C)c(C(=O)OCC(=O)Nc2ccc(Cl)cn2)c1C`, the IC90 came out at 2.91 µM. Besides, the IC50 (HEPG2TOX_HILL_SLOPE 0.952, HEPG2TOX_R_SQUARED 0.987, PBLUC_HILL_SLOPE 2.41, PBLUC_R_SQUARED 0.555, read-out: LUCIFERASE INFECTION ASSAY - IC50) was 1.17 µM.

For the molecule `Cc1cc(C)c(SC(C)C(=O)NC(N)=O)c(C)c1` (centres undefined), the IC90 was over 10 µM. Further, the IC50 under setting [1] is over 10 µM.

As for `OCc1ccc(-c2cn3c(-c4cccc(OC(F)(F)F)c4)cnc3cn2)cc1`, the concentration for an effect of 90% (IC90) stood at 4.85 µM. Moreover, the IC50 (PBLUC_HILL_SLOPE 9.63, PBLUC_R_SQUARED 0.631, read-out: LUCIFERASE INFECTION ASSAY - IC50) came out at 3.86 µM.

`COc1cccc(CNC(=S)SCC(=O)C(C)(C)C)c1`: the IC90 was over 10.6 µM. The IC50 under setting [1] was over 10.6 µM.

As to `CN(C)c1nc(N)nc(/C(C#N)=C/c2ccc(N(c3ccccc3)c3ccccc3)cc2)n1`, the IC90 is over 10 µM. Besides, the IC50 (PBLUC_HILL_SLOPE 2.12, PBLUC_R_SQUARED 0.0159, read-out: LUCIFERASE INFECTION ASSAY - IC50) is 7.93 µM.

As to `COc1ccc(-c2cn3c(-c4ccc5ncccc5c4)cnc3cn2)cn1`, the IC90 turned out to be 4.4 µM. Where the note is “HEPG2TOX_HILL_SLOPE 1.73, HEPG2TOX_R_SQUARED 0.987, PBLUC_HILL_SLOPE 1.52, PBLUC_R_SQUARED 0.763, read-out: LUCIFERASE INFECTION ASSAY - IC50”, the IC50 was found to be 1.04 µM.

For `FC(F)(F)c1ccccc1NC(=S)N1CCCN(c2nc3ccc(Cl)cc3s2)CC1`, the IC90 was determined as 2.54 µM. Besides, under setting [1], the IC50 amounted to 2.32 µM.

With `COc1ccccc1NS(=O)(=O)c1ccc2nc(-c3ccncc3)[nH]c2c1`, the IC90 was over 10 µM. Also, under setting [1], the IC50 is over 10 µM.

Consider `N#Cc1ccc(-c2csc(CS(=O)(=O)Cc3cccc(C(F)(F)F)c3)n2)cc1`, for which the IC90 was over 7.81 µM. Also, the half-maximal inhibitory concentration (IC50) under setting [1] was over 7.81 µM.

Consider `CC(C)Oc1ccc(Nc2nccc3[nH]c(-c4ccsc4)cc23)cc1`, for which the IC90 was determined as 4.09 µM. Moreover, under setting [1], the IC50 was 2.25 µM.

As to `O=C(Nc1ccc(SC(F)(F)F)cc1)Nc1ccc(-n2ccc(C(F)(F)F)n2)cc1`, the IC90 worked out at 2.69 µM. The IC50 (HEPG2TOX_HILL_SLOPE 17.7, HEPG2TOX_R_SQUARED 0.761, PBLUC_HILL_SLOPE 20.9, PBLUC_R_SQUARED 0.513, read-out: LUCIFERASE INFECTION ASSAY - IC50) was determined as 2.42 µM.

In the case of `CC1CC(=O)C2C(=Nc3ccccc3SC2c2ccc(F)cc2)C1` (centres undefined), the IC90 is over 9.72 µM. Besides, the IC50 (FFLUC_HILL_SLOPE 40.6, FFLUC_R_SQUARED 0.352, PBLUC_HILL_SLOPE 4.94, PBLUC_R_SQUARED 0.608, read-out: LUCIFERASE INFECTION ASSAY - IC50) amounted to 7.03 µM.

Regarding `O=C(NNC(=O)c1cnc2ccccn2c1=O)c1cc(Cl)ccc1O`, the IC90 came out at 4.25 µM. Besides, the IC50 (HEPG2TOX_HILL_SLOPE 14.4, HEPG2TOX_R_SQUARED 0.595, PBLUC_HILL_SLOPE 11.5, PBLUC_R_SQUARED 0.377, read-out: LUCIFERASE INFECTION ASSAY - IC50) turned out to be 3.51 µM.

`CC(NC(=O)c1ccccc1NC(=O)CSc1ccc2c3c(cccc13)CC2)c1ccccc1` (centres undefined): the IC90 is over 10 µM. The IC50 (FFLUC_HILL_SLOPE 9.73, FFLUC_R_SQUARED 0.624, HEPG2TOX_HILL_SLOPE 6.39, HEPG2TOX_R_SQUARED 0.223, read-out: LUCIFERASE INFECTION ASSAY - IC50) is over 10 µM.

On to `CC(N=C(S)Nc1ccc(OC(F)F)c(Cl)c1)C(C)(C)C` (centres undefined), for which the IC90 is over 10 µM. Moreover, the IC50 (HEPG2TOX_HILL_SLOPE 8.22, HEPG2TOX_R_SQUARED 0.242, PBLUC_HILL_SLOPE 12.6, PBLUC_R_SQUARED 0.772, read-out: LUCIFERASE INFECTION ASSAY - IC50) turned out to be 8.6 µM.

With `Oc1ccc(Cl)cc1/C=C/c1ccc2cccc(O)c2n1`, the IC90 worked out at 6.73 µM. Also, where the note is “HEPG2TOX_HILL_SLOPE 5.53, HEPG2TOX_R_SQUARED 0.986, PBLUC_HILL_SLOPE 37.8, PBLUC_R_SQUARED 0.36, read-out: LUCIFERASE INFECTION ASSAY - IC50”, the IC50 came out at 6.35 µM.

As to `O=C(c1cccnc1)N1CCc2nc(NCc3cccc(Oc4ccccc4)c3)ncc2C1`, the IC90 is over 7.54 µM. Moreover, the IC50 (HEPG2TOX_HILL_SLOPE 6.99, HEPG2TOX_R_SQUARED 0.608, read-out: LUCIFERASE INFECTION ASSAY - IC50) is over 7.54 µM.

For the molecule `Nc1nc(-c2c[nH]c3ccccc23)c(-c2ccccc2)s1`, the IC90 is over 10 µM. The IC50 (PBLUC_HILL_SLOPE 2.51, PBLUC_R_SQUARED 0.619, read-out: LUCIFERASE INFECTION ASSAY - IC50) stood at 7.04 µM.
